Results on 27 compounds are retold here after ChEMBL document CHEMBL1201862, “PubChem BioAssay data set” (2004).

Structures are written as SMILES. Active and inactive are the calls of the source.

The target of test [1] is T1, Short transient receptor potential channel 4 (Mus musculus, UniProt Q9QUQ5).
T1 sequence (Q9QUQ5 whole entry): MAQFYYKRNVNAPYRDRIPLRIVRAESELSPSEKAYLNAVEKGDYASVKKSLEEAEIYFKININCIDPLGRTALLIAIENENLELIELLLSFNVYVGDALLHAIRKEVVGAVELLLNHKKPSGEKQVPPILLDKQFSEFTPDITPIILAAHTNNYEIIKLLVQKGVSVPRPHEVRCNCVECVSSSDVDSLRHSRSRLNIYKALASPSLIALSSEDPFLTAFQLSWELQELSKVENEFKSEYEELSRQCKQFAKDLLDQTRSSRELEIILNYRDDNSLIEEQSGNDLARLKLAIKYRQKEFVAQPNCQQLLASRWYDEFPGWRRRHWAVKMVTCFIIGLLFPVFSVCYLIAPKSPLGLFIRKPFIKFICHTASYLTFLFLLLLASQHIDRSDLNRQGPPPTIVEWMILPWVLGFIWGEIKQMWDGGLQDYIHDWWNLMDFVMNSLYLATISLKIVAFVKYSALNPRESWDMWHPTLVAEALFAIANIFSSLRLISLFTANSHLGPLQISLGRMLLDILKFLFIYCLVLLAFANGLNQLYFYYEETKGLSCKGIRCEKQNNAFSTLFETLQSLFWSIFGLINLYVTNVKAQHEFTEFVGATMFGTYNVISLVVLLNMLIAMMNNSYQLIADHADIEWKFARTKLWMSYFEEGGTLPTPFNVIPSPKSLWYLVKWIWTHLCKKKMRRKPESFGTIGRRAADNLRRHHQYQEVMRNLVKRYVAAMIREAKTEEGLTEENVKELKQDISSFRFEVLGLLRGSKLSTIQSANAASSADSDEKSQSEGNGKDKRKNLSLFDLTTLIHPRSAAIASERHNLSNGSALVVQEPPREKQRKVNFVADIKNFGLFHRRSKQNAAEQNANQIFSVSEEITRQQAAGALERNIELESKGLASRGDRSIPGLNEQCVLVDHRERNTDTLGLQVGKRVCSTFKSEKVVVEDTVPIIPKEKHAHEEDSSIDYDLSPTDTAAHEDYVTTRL
As to the kind of experiment: mouse TRPC4 channel inhibitors, dose response, cell-based, HEK293 TRPC4/mu-opioid, Fluo-4 calcium (AID 434942).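 Also: potency of inhibitors blocking the TRPC4 calcium response.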 It is filed as functional.

In test [2] the target is Luciferin 4-monooxygenase (Photinus pyralis, UniProt P08659). As to the kind of experiment: firefly luciferase enzyme inhibitors, dose response, biochemical, luminescence (AID 1891).
Chain of Luciferin 4-monooxygenase (P08659 whole entry): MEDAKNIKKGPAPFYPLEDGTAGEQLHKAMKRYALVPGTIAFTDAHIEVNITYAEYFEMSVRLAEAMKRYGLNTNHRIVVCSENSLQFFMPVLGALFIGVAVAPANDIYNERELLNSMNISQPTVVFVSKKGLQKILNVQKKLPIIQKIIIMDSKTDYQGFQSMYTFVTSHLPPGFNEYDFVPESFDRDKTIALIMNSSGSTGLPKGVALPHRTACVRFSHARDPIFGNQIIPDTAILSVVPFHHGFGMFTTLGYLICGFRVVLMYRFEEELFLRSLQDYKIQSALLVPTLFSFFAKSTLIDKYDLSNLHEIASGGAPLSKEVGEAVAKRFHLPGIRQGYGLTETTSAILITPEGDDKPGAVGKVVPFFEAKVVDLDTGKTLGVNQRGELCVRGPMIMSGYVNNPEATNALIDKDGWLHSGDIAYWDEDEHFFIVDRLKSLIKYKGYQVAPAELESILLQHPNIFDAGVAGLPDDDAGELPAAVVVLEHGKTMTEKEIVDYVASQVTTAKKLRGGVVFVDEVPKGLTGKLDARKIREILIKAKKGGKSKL
Test [3] in a line: Luminescence Cell-Based Dose Confirmation HTS to Identify Inhibitors of Platelet Dense Granule Release. [Related pubchem assays: 1663 (Primary HTS), 1678 (Summary of Project)]. It is filed as functional.
The target of another test is T2, Coagulation factor XII (Homo sapiens, UniProt P00748).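 Also: activated factor XIIa alpha cleaving a fluorogenic AMC peptide substrate; inhibitor potency from loss of enzyme activity.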
T2 sequence (P00748 whole entry): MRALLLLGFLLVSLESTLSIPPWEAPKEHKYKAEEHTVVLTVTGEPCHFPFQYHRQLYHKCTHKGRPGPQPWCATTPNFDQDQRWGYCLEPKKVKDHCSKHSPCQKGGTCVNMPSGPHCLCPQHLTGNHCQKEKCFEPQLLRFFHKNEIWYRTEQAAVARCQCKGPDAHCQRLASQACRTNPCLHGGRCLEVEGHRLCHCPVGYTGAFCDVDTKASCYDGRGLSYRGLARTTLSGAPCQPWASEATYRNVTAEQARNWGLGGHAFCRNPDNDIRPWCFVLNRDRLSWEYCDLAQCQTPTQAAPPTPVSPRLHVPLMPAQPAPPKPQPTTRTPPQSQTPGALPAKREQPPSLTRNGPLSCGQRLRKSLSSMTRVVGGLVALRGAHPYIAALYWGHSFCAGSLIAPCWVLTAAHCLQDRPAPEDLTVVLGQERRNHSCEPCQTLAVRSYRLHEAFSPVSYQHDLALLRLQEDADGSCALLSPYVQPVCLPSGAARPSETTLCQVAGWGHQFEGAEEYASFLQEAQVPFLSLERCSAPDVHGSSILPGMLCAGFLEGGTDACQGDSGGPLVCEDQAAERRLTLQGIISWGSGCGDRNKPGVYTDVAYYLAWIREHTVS
Type of test: functional.

A further test addresses Large T antigen (Simian virus 40, UniProt P03070). It is filed as functional, Betapolyomavirus macacae.
Test [4] addresses Peroxisome proliferator-activated receptor gamma/Nuclear receptor coactivator 1 (Homo sapiens, UniProt P37231). The experiment in a line: TR-FRET dose response biochemical High Throughput Screening assay for agonists of the steroid receptor coactivator 1 (SRC-1) recruitment by the peroxisome proliferator-activated receptor gamma (PPAR gamma): non-selective agonists. [Related pubchem assays (depositor defined):AID1300, AID1808, AID504735, AID631]. It is filed as protein assay. A general note: TR-FRET usually uses a lanthanide donor and a delayed reading to cut background.

Test [5] has as its target Peroxisome proliferator-activated receptor gamma/Nuclear receptor coactivator 3 (Homo sapiens, UniProt P37231). As to the kind of experiment: TR-FRET dose response biochemical High Throughput Screening assay for agonists of the steroid receptor coactivator 3 (SRC-3) recruitment by the peroxisome proliferator-activated receptor gamma (PPAR gamma): non-selective agonists. [Related pubchem assays: 1301 (Confirmation screen.), 1048 (Primary screen.)]. It is filed as functional.

For test [6], the target named is Peroxisome proliferator-activated receptor gamma/Nuclear receptor coactivator 2 (Homo sapiens, UniProt P37231). The experiment in a line: TR-FRET dose response biochemical High Throughput Screening assay for agonists of the steroid receptor coactivator 2 (SRC-2) recruitment by the peroxisome proliferator-activated receptor gamma (PPAR gamma): non-selective agonists. [Related pubchem assays: 1297, 1032 ]. It is filed as functional.

Test [7] is described as follows: NIH-3T3 fibroblast cytotoxicity, dose response, cytotoxicity control, cell-based, fluorescence, Alamar Blue, secondary assay (AID 2327).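 Also: NIH-3T3 mouse fibroblasts cultured with fluconazole at 8 µg/mL.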 It is filed as functional. (In general: Alamar Blue is a resazurin reagent that responds to reducing activity.)
Test [8] in a line: C. albicans growth with fluconazole, confirmation, fluorescence, retest (AID 2467). It is filed as functional, cell-based.
Test [9] concerns the target T3, Calpain-2 catalytic subunit (Sus scrofa, UniProt P43367).
T3 sequence (P43367 whole entry): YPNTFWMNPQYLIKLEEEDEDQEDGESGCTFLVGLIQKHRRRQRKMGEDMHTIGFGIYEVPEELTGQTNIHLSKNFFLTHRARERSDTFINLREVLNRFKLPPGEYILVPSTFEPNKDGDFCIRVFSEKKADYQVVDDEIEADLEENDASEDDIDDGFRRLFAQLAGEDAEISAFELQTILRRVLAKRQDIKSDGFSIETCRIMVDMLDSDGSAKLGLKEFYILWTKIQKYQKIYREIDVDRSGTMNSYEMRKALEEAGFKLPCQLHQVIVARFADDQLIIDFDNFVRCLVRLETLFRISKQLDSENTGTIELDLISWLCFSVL
The experiment in a line: pig calpain II inhibitor potency, dose response, biochemical, fluorogenic peptide substrate (AID 1420). Type of test: functional.

The target in test [10] is T4, RNA-binding protein pos-1 (Caenorhabditis elegans, UniProt G5EF15).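 Also: purified POS-1 fused to maltose binding protein made in E. coli; potency of compounds blocking POS-1 binding to fluorescent RNA.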
T4 sequence (G5EF15 whole entry): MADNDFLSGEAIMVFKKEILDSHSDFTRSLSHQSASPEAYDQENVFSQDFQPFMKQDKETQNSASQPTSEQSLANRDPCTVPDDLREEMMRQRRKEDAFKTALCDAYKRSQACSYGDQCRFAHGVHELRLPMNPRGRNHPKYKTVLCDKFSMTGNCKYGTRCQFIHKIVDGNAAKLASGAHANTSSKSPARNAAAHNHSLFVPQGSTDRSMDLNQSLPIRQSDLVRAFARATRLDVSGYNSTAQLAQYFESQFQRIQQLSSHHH
As to the kind of experiment: inhibitors of POS-1/mex-3 RNA binding, dose response, biochemical, fluorescence polarization (AID 1964). (In fluorescence polarisation assays a small probe gives low polarisation when free and higher when bound to something large.)

Test [11] concerns the target T5, Zinc finger protein mex-5 (Caenorhabditis elegans, UniProt Q9XUB2).
T5 sequence (Q9XUB2 whole entry): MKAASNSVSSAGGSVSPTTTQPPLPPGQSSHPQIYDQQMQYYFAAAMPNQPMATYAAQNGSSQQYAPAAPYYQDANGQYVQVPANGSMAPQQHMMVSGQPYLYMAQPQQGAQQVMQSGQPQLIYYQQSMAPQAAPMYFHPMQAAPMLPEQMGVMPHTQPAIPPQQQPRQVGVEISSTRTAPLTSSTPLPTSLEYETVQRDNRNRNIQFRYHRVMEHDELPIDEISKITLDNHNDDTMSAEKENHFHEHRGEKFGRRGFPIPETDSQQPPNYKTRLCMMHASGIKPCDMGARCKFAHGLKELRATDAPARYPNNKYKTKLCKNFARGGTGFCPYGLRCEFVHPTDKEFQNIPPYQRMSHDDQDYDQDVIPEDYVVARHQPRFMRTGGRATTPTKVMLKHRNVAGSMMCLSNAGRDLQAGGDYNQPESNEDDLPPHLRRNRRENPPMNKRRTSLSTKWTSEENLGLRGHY
The experiment in a line: MEX-5/TCR-2 RNA interaction inhibitors, dose response, biochemical, C. elegans, fluorescence polarization (AID 1960).

Test [12] in a line: Luminescence Cell-Based Dose Response HTS to Identify Inhibitors of 5'UTR Stem-Loop Driven Prion Protein mRNA Translation in H4 Neuroglioblastoma Cells. [Related pubchem assays: 1827 (Project Summary), 1813 (Primary HTS)]. It is filed as functional.
Test [13] in a line: inhibitors of SNCA 5'UTR-driven reporter translation, confirmation, H4 neuroglioma cells, luminescence (AID 1988). Type of test: functional, cell-based.

Chain of Large T antigen (P03070 whole entry): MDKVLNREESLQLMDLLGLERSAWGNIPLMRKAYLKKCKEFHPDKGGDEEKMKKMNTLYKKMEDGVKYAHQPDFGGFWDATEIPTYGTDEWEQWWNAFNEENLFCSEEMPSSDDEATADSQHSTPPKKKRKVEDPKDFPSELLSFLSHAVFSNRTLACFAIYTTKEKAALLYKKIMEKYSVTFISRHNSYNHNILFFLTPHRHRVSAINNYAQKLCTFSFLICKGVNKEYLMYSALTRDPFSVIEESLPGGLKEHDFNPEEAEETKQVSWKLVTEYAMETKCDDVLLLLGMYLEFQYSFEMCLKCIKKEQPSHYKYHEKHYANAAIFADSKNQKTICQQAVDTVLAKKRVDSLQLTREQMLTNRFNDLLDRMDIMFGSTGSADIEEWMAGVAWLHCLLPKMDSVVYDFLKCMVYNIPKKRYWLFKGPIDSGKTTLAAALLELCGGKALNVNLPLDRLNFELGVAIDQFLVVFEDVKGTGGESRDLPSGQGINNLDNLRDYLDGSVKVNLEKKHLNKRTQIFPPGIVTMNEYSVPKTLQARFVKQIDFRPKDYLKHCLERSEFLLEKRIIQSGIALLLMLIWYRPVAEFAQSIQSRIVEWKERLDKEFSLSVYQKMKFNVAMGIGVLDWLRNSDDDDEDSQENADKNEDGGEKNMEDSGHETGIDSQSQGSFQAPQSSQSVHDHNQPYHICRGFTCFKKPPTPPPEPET
Chain of Peroxisome proliferator-activated receptor gamma/Nuclear receptor coactivator 3 (P37231 whole entry): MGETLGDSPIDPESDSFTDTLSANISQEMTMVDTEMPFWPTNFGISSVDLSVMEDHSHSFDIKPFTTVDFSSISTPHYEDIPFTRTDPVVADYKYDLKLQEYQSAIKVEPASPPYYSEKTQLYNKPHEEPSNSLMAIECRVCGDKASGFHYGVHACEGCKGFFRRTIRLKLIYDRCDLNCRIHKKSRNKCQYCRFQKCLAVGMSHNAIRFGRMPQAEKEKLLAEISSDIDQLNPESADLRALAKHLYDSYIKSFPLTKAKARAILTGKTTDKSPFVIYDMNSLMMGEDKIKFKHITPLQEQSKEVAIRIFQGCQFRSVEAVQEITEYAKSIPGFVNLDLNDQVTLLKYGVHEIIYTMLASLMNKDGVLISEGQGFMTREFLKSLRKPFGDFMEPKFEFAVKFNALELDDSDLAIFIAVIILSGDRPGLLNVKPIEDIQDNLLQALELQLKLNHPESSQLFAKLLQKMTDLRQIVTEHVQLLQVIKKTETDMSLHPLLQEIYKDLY
Chain of Peroxisome proliferator-activated receptor gamma/Nuclear receptor coactivator 3 (Q9Y6Q9 whole entry, further chain): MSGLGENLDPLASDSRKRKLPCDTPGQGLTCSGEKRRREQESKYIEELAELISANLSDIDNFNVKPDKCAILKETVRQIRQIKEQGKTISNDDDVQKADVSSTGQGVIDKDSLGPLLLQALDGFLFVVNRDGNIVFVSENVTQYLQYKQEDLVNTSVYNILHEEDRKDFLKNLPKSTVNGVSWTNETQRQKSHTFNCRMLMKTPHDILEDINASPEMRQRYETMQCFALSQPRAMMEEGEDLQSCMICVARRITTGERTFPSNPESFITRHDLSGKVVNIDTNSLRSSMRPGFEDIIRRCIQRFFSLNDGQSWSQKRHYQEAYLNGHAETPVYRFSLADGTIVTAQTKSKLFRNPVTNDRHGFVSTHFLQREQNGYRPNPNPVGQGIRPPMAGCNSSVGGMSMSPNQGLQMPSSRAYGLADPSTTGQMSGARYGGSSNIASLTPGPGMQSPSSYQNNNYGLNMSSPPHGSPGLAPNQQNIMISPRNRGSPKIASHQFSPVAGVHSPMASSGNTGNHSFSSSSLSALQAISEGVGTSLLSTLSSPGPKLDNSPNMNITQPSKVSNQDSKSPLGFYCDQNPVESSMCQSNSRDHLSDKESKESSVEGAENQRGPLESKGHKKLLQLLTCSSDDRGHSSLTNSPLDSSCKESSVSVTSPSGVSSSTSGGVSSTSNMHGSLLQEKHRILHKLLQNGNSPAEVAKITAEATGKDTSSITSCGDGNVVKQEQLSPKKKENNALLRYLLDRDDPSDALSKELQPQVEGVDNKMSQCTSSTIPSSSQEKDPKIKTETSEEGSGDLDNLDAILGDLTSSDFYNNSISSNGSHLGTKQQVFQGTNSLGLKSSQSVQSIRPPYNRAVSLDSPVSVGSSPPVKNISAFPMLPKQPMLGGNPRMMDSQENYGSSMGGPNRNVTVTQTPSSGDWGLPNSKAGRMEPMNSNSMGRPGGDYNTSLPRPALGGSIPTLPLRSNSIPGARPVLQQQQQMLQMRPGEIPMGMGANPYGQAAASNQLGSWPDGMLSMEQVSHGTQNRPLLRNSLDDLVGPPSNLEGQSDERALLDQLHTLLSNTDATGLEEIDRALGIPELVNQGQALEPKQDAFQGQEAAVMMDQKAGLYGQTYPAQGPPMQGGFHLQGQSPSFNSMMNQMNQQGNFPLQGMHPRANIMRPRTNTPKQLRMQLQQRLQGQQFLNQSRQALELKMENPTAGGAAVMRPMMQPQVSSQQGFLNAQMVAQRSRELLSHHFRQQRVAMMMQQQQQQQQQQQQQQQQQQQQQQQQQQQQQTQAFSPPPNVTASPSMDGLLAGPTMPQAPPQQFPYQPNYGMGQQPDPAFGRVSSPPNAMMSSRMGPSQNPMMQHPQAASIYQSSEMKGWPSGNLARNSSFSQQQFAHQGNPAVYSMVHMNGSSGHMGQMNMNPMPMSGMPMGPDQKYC

For the compound `O=[N+]([O-])c1cccc(-c2nnc(C3CC3)o2)c1`, the EC50 (usually the concentration needed to bring the measured effect to its halfway point) in [1] is 3.76 µM (active).

`COc1ccc(-c2nc(C[S+]([O-])CC(=O)NCCc3ccc(C)cc3)c(C)o2)cc1OC` (stereo not given): the EC50 in [2] and in [3] was > 112 µM (not active) throughout.

Consider `Cc1ccc(-c2nc(C[S+]([O-])CC(=O)NCCCN3CC(C)CC(C)C3)c(C)o2)cc1` (stereo not given), for which the EC50 in [2] and in [3] was > 112 µM (not active) in each case.

As for `CCCn1c(=O)c2ccccc2n2c(SCCOc3ccccc3)nnc12`, in test [1], the concentration for a half-maximal effect (EC50) is 5.96 µM (active).

As to `O=C(OCC(=O)c1ccc(Cl)s1)c1ccc2ccccc2n1`, at Coagulation factor XII, the IC50 (in general, the concentration needed to halve the response being measured) was > 50 µM (inactive).

With `CN(Cc1ccccc1)c1ccc(S(=O)(=O)N2CCOCC2)cn1`, the EC50 in test [2] and in test [3] was > 112 µM (not active) throughout.

For the compound `Cc1ccc(S(=O)(=O)N2CCCOC2CNC(=O)C(=O)NCCc2c[nH]c3ccccc23)cc1` (stereo not given), on Large T antigen, the IC50 was 86.8 µM (active).

For the compound `COC(=O)c1c(N=C(S)Nc2ccccc2Cl)sc(C)c1C`, the EC50 is 84.9 µM (inactive) in test [4], > 79.4 µM (not active) in test [5] and 28.6 µM (not active) in test [6].

For the compound `COC(=O)c1sccc1NC(=O)Nc1cccc(C)c1`, the EC50 in test [2] was 0.21 µM (active); in test [3] it was 2.5 µM (active).

Take `O=S(=O)(Nc1ccccc1)c1ccc(-c2csnn2)cc1`: the IC50 at Coagulation factor XII was > 50 µM (inactive).

For the compound `O=C(CN1C(=O)c2cccc3cccc1c23)NCc1ccc2c(c1)OCO2`, on Coagulation factor XII, the IC50 is > 50 µM (inactive).

With `c1ccc(-c2nc(-c3cccs3)[nH]c2-c2ccccc2)cc1`, the EC50 in test [4] was 42.6 µM (inactive); in test [5] it was > 79.4 µM (not active); in test [6] it was 32.3 µM (not active).

Turning to `Fc1cccc(Nc2c3c(nc4ccccc24)CCC3)c1`, the EC50 in test [1] was 1.19 µM (active).

`CCOC(=O)c1ccc2c(c1)nc(S)n2CC`: the EC50 is 17.5 µM (inactive) in test [4], > 79.4 µM (not active) in test [5] and 15.7 µM (not active) in test [6].

Turning to `Cn1c(=O)cc(SCC(=O)NCC2CCCO2)c2ccccc21` (stereo not given), the EC50 is > 79.4 µM (inactive) in test [4], > 79.4 µM (not active) in test [5] and > 79.4 µM (not active) in test [6].

As for `O=C(CSc1cccc[n+]1[O-])c1cc(Cl)ccc1Cl`, the values for the 50% effective concentration (EC50) in test [7] and in test [8] were 35.8 µM (active) and > 38 µM (not active), respectively. The IC50 in [9] is > 50 µM (not active).

Take `CCOc1ccc(N2C(=O)S/C(=C\c3cccn3C)C2=O)cc1`: the EC50 is > 300 µM (inconclusive) in test [10], > 300 µM (not active) in [11], > 112 µM (not active) in [2] and > 112 µM (not active) in test [3].

With `COc1ccc(Cl)cc1N=C(N)Nc1nc(C)cc(C)n1`, the 50% effective concentration (EC50) in test [1] was 2.11 µM (active).

On to `c1ccc2nc(-c3nc4ccccc4[nH]3)ccc2c1`, for which the EC50 was 11.1 µM (inconclusive) in [12], 9.4 µM (active) in [13], 0.49 µM (active) in test [2] and 2.16 µM (active) in test [3].

`CCOc1ccccc1-c1nnc(S)o1`: the EC50 is > 2.94 µM (inactive) in test [4], > 79.4 µM (not active) in test [5] and 35.6 µM (not active) in test [6].

For `COc1ccc(O)c(CN2CCCC(C(=O)c3sccc3C)C2)c1` (stereo not given), the concentration giving a half-maximal response (EC50) in [1] was 3.35 µM (active).

Take `CSCCNC(=O)c1ccc(OC2CCN(CCc3ccccc3)CC2)cc1`: in [1], the EC50 was 0.473 µM (active).

Take `O=C(O)c1ccc(N=C(NS(=O)(=O)c2ccc(Cl)cc2)c2ccccc2)cc1`: the IC50 on Coagulation factor XII is > 50 µM (inactive).

For `Cc1ccsc1/C=N/Nc1nc(O)nnc1C`, the figures for the EC50 in test [2] and in [3] were 0.519 µM (active) and 5.47 µM (active), respectively.

In the case of `C(=N\c1ccc(N2CCOCC2)cc1)/c1c[nH]c2ccccc12`, the IC50 at Large T antigen is 4.34 µM (active).

As to `COc1cc(/C=N/Nc2nc3ccccc3[nH]2)cc(OC)c1O`, the IC50 on Large T antigen is 7.09 µM (active).

For `CCOC(=O)[C@H]1O[C@@H]1C(=O)N[C@@H](CC(C)C)C(=O)NCCC(C)C` [ALOXISTATIN], the IC50 in test [9] is 1.77 µM (active).
